Data on ten compounds can be found in US20240299348A1, “MODULATORS OF TRPML, THEIR COMPOSITIONS AND METHODS OF USE” (Caraway Therapeutics, Inc., priority 2021, published 2024).

Where two headings read alike, the source gives them in different places. Some results are limits rather than exact numbers.

Test [1] concerns the target T1, hTRPML1 (Homo sapiens, UniProt Q9GZU1). As to the kind of experiment: TRPML1 fluorescent (Fluo-4) assay. The test is classed as cell-based. The settings on record: activation; HEK-293 Trex cells expressing hTRPML1; read-out: Secondary Screening: Fluo-4: hTRPML1: EC50. The arrangement: Secondary Screening: Fluo-4: hTRPML1: EC50 (M); HEK-293 Trex cells expressing hTRPML1. The protocol: (§1) HEK-293 Trex cells were stably transfected with a construct consisting of the human coding sequence for TRPML1 cloned into the […] plasmid pCDNA5 T/O. Mutations were introduced into the TRPML1 sequence to facilitate expression on the cell surface (Silvia Vergarajauregui, Rosa Puertollano Traffic. 2006 March; 7(3): 337-353). Briefly, the cells are cultured in 150 mm round tissue culture dishes containing 20 mL of media. The day before the assay the cells are rinsed with DPBS—Ca—Mg and then treated briefly with Trypsin-EDTA. The Trypsin-EDTA is diluted with growth media, and cells are counted. 38×10^6 cells are re-plated into 150 mm round tissue culture dishes in media containing 0.5 ug/mL doxycycline to induce expression of hTRPML1.
The day of the experiment cells are lifted from the plates as above and collected by centrifugation. The cells are then suspended in dye loading buffer consisting of Ringer's solution supplemented with 0.1% Pluronic Acid and 1 micromolar Fluo4-AM dye. Cells are loaded for ˜60 minutes in the dark with occasional mixing. The cells are collected by centrifugation, the loading media aspirated, and the cells resuspended in 25 mL Ringer's solution and incubated ˜60 minutes in the dark. The cells are again collected by centrifugation, rinsed in Ringer's Solution and resuspended to 0.2×10^6 cells/mL in modified Ringer's solution containing 10 mM calcium.
Compounds are dissolved to a concentration of 10 millimolar with DMSO. Compound plates are created by dispensing compounds into 384 well black wall clear bottom plates (Greiner 781091). Positive and negative controls are included on each plate. Typically, different amounts of each compound are tested ranging from 100 nanoMoles (20 micromolar final concentration) decreasing in half-log steps to 31 picoMoles (6 nanomolar final concentration). Each concentration is typically tested in triplicate.
(§2) 50 microliters of dye-loaded cells are dispensed into each well of the compound assay plate created above. The fluorescence in each well is then determined with an excitation wavelength of 480 nm and an emission wavelength of 540 nm using either a Molecular Devices SpectraMax multimode plate reader or a Hamamatsu FDSS/uCell plate imager.
(§3) The resulting fluorescence for each well is exported as an ascii file and loaded into our LIMS for analysis. The percent activity of each compound at each concentration is determined by comparison to the positive and negative control wells included in each plate.
(§4) EC50 values were calculated using a non-linear regression of Prism.

The target in test [2] is T2, hTRPML2 (Homo sapiens, UniProt Q8IZK6).
T2 construct: expressed in transfected cells; host or cells: HEK-293 Trex (by analogy, 'performed as above')
T2 sequence (Q8IZK6 1-566): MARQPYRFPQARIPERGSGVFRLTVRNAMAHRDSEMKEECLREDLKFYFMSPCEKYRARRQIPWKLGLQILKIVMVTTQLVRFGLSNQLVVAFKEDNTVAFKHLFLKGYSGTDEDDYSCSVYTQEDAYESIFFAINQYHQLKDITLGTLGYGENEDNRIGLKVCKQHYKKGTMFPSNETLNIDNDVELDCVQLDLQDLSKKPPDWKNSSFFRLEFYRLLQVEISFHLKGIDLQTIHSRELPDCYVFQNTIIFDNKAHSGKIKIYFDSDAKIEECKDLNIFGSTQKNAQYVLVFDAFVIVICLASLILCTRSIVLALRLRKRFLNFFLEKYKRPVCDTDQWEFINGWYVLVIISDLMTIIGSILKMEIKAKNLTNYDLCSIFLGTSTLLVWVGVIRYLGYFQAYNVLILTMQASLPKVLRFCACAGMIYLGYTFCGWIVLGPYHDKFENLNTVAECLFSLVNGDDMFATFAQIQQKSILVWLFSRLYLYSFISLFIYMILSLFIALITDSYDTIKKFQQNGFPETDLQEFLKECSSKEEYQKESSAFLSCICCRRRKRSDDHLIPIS
Kind of test: TRPML2 fluorescent (Fluo-4) assay. The test is classed as cell-based. The protocol: (§5) Assays for TRPML2 and TRPML3 were performed as above for TRPML1, by substituting the appropriate TRPML2 or TRPML3 subtype for the TRPML1.
as §4

For test [3], the target named is T3, hTRPML3 (Homo sapiens, UniProt Q8TDD5).
T3 construct: expressed in transfected cells; host or cells: HEK-293 Trex (by analogy, 'performed as above')
T3 sequence (Q8TDD5 1-553): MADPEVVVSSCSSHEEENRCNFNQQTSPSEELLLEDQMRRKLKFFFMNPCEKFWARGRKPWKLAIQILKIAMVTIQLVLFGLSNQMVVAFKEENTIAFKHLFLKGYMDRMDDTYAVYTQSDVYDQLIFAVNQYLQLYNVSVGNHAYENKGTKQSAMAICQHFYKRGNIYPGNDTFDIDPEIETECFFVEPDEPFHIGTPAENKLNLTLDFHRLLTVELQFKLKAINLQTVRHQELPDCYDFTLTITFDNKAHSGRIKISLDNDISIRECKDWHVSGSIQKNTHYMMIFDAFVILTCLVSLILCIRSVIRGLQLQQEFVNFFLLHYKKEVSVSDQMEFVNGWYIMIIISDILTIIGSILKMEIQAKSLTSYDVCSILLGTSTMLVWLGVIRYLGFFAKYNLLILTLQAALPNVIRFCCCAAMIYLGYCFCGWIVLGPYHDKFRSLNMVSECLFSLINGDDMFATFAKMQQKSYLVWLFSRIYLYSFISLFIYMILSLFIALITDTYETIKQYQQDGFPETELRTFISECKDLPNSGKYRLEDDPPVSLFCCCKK
Kind of test: TRPML3 fluorescent (Fluo-4) assay. The test is classed as cell-based. The protocol: as §5, §4

Test [4] concerns HeLa cells with the NPC1 gene knocked out. As to the kind of experiment: Total hexosylceramides in HeLa cells with NPC1 gene knocked out. The test is classed as cell-based. The settings on record: NPC1 knockout HeLa, FIG. 1. On the procedure:
(§6) HeLa cells with the NPC1 gene knocked out via CRISPR-generated frameshifting indels were grown in standard cell culture conditions (DMEM high glucose with 10% FBS and penicillin/streptomycin). Cells were treated with the indicated concentrations of TRPML1 activators for 48 hours; media and compound were refreshed every 24 hours (FIG. 1). Two replicates per treatment were used. Cells were pelleted in PBS, frozen, and shipped to the Medical University of South Carolina (MUSC) for lipid quantitation by mass spectrometry. Lipid quantities were normalized to total inorganic phosphate in the cell sample as assessed by mass spectrometry. […] Statistical significance versus DMSO (p values indicated above) unpaired t-test.

For test [5], the system named is HeLa cells with the NPC2 gene knocked out. Kind of test: Total hexosylceramides in HeLa cells with NPC2 gene knocked out. The test is classed as cell-based. The following applies: NPC2 knockout HeLa. On the procedure:
as §6
Shown in FIG. 2 are results from the same experiment described in FIG. 1, but using HeLa cells with the NPC2 gene knocked out via CRISPR.

Test [6] deals with mIMCD-3 cells with the PKD1 gene knocked out. As to the kind of experiment: Forskolin-induced cyst swelling, in vitro model of Polycystic Kidney Disease. The test is classed as cell-based, murine. The settings on record: 5 uM forskolin, 72 hours of compound treatment; DMSO 100%+/−7.1. On the procedure:
Shown in FIG. 3 are results from an experiment where mIMCD-3 cells with the PKD1 gene knocked out via CRISPR-generated frameshifting indels were seeded into 384 well plates containing Matrigel and cultured in standard growth media for 4 days until they formed spherical organoid cysts as described in Reference 1 (Booij et al., SLAS Discov. 2017 September; 22(8):974-984). TRPML1 activators and vehicle were added to the cells at the indicated concentrations, in combination with 5 uM forskolin to induce cyst swelling. Four replicates per treatment were used. Approximately half of the media in each well was replaced with fresh media containing compounds and forskolin every 24 hours. After 72 hours of compound treatment, the cysts were fixed and stained for nuclei (DAPI) and actin (fluorescent-conjugated phalloidin). The ability of the TRPML1 activators to inhibit forskolin-induced cyst swelling was assessed using the 2-dimensional cross-sectional area of each cyst as measured using a high content microscope with a 4× objective, and analyzed using proprietary Ominer software. Cyst areas were averaged within each well and normalized to the vehicle control (DMSO).

Test [7] has as its target TRPML1 (Homo sapiens, UniProt Q9GZU1, L15A/L16A). As to the kind of experiment: GCaMP surface assay. The test is classed as cell-based.
Test [8] concerns the target T1, hTRPML1. Kind of test: TRPML1 fluorescent (Fluo-4) assay. The test is classed as cell-based. More on the design: fused on or other part: Possibly a GCaMP calcium sensor fused on, for the parenthetic 'GCaMP surface assay' value. The protocol:
as §1, with “38×10^6 cells are re-plated into 150 mm round tissue culture dishes in media containing 0.5 ug/mL doxycycline to induce expression of hTRPML1.” left out
as §2, §3, §4

For test [9], the system named is TRPMLs. The settings on record: literature report; cited from earlier work.
[10] abbreviates: activation, read-out: Secondary Screening: Fluo-4: hTRPML2: EC50.
Setting [11] is: activation, read-out: Secondary Screening: Fluo-4: hTRPML3: EC50.

T1 sequence (Q9GZU1 whole entry L15A/L16A/L577A/L578A, form open): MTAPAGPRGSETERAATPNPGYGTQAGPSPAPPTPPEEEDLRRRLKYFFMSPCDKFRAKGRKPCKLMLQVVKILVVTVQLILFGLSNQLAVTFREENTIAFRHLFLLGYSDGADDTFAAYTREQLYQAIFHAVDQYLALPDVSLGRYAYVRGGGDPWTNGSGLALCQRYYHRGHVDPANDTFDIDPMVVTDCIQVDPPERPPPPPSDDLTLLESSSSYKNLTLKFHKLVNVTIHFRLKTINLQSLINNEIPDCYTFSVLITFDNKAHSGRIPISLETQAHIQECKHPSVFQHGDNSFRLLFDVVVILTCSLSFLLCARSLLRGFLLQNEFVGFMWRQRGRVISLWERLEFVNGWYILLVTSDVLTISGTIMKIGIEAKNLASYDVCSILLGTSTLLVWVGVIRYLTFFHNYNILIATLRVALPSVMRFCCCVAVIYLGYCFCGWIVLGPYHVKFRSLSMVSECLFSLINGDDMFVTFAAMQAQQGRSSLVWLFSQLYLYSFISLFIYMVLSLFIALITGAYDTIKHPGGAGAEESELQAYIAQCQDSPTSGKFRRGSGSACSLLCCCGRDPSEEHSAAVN
Chain of TRPML1 (Q9GZU1 with tags, fused parts or gaps L15A/L16A): as the sequence (Q9GZU1 whole entry L15A/L16A/L577A/L578A, form open) above

Usually EC50 stands for the concentration that produces a half-maximal response. As to `CN(C)S(=O)(=O)c1ccc(S(=O)(=O)N[C@@H]2CCCCC[C@H]2N2CCN(c3ccc(Cl)cc3F)CC2)cc1` (relative stereo) [Compound 120, trans-N^1-(2-(4-(4-chloro-2-fluorophenyl)piperazin-1-yl)cycloheptyl)-N^4,N^4 dimethylbenzene-1,4-disulfonamide], the figures for the EC50 in test [1], in test [2] (setting [10]) and in test [3] (setting [11]) were less than 300 nM, 1000 to 5000 nM and 300 to 1000 nM, respectively.

On to `CN(C1CCN(c2ccccc2F)C1)[C@H]1CCCC[C@@H]1NS(=O)(=O)c1ccc(S(=O)(=O)N(C)C)cc1` (relative stereo) [Compound 121, trans-N^1-(2-((1-(2-fluorophenyl)pyrrolidin-3-yl)(methyl)amino)-cyclohexyl)-N^4,N^4-dimethylbenzene-1,4-disulfonamide], for which the EC50 was 1000 to 5000 nM in [1], 1000 to 5000 nM in [2] (setting [10]) and 300 to 1000 nM in test [3] (setting [11]).

Turning to `CN(C)S(=O)(=O)c1ccc(S(=O)(=O)N[C@@H]2CCCCC[C@@H]2N2CCN(c3ccc(Cl)cc3F)CC2)cc1` (relative stereo) [Compound 122, Cis-N^1-(2-(4-(4-chloro-2-fluorophenyl)piperazin-1-yl)cycloheptyl)-N^4,N^4-dimethylbenzene-1,4-disulfonamide], the figures for the EC50 in test [1], in test [2] (setting [10]) and in test [3] (setting [11]) were less than 300 nM, 1000 to 5000 nM and 300 to 1000 nM, respectively.

`CN(c1ccccc1NS(=O)(=O)c1ccc(S(=O)(=O)N(C)C)cc1)C1CCN(c2ccc(Cl)cc2F)C1` (stereo not drawn) [Compound 101, N^1-(2-((1-(4-chloro-2-fluorophenyl)pyrrolidin-3-yl)(methyl)amino)phenyl)-N^4,N^4-dimethylbenzene-1,4-disulfonamide]: the EC50 was 300 to 1000 nM in [1], less than 300 nM in [2] (setting [10]) and less than 300 nM in [3] (setting [11]). For the same compound, the “total hexosylCeramides compared with DMSO vehicle (in words)” value in [4] and in [5] (FIG. 2) was “reduced” throughout. The “total HexosylCeramides” value in [5] (48 hours treatment, DMSO 6.45+/−0.28) is 3.48+/−0.20 HexCer/nmol Pi/sample. Also, in [6], the “cyst area normalized to the vehicle control (DMSO)” value (“cyst area normalized” for short) worked out at 51.2%+/−1.6.

In the case of `CN(c1ccccc1NS(=O)(=O)c1ccc(S(C)(=O)=O)cc1)C1CCN(c2ccc(Cl)cc2F)C1` (stereo not drawn) [Compound 113, N-(2-((1-(4-Chloro-2-fluorophenyl)pyrrolidin-3-yl)(methyl)amino)phenyl)-4-(methylsulfonyl)benzene-sulfonamide], the EC50 in [1] is 300 to 1000 nM; in test [2] (setting [10]), more than 5000 nM; in [3] (setting [11]), 1000 to 5000 nM.

Take `CN(c1ccccc1NS(=O)(=O)c1ccc(S(=O)(=O)N(C)C)cc1)C1CCN(C(=O)Oc2ccccc2)C1` (stereo not drawn) [Compound 123, Phenyl 3-((2-((4-(N,N-dimethylsulfamoyl)phenyl)sulfonamido)phenyl)(methyl)amino)pyrrolidine-1-carboxylate]: the values for the EC50 in test [1], in [2] (setting [10]) and in test [3] (setting [11]) were 1000 to 5000 nM, 1000 to 5000 nM and 300 to 1000 nM, respectively.

Consider `CN(c1ccccc1NS(=O)(=O)c1ccc(S(=O)(=O)N(C)C)cc1)C1CCN(C(=O)OC2CCCCC2)C1` (stereo not drawn) [Compound 124, cyclohexyl 3-((2-((4-(N,N-dimethylsulfamoyl)phenyl)sulfonamido)phenyl)(methyl)amino)pyrrolidine-1-carboxylate], for which the EC50 in [1] fell in the range of 300 to 1000 nM; in test [2] (setting [10]), 1000 to 5000 nM; in test [3] (setting [11]), 300 to 1000 nM.

As for `CN(C)S(=O)(=O)c1ccc(S(=O)(=O)Nc2ccccc2N2CCN(c3ccc(Cl)cc3F)CC2)cc1` [Compound 125], the “cyst area normalized” value in test [6] turned out to be 69.6%+/−4.4. A half-maximal effect in [7] (EC50) was put at 453 nM.

Turning to `CC1CC(C)(C)N(C(=O)CN2C(=O)c3ccccc3C2=O)c2ccccc21` (stereo not drawn) [Compound 126, reference compound], in test [2] (Table 2 key), the “TRPML2 activation EC50 (Table 2, class)” value is “B/C/D”. Besides, the EC50 in test [2] (read-out: TRPML2 activation EC50 (Table 2, number)) was 5410 nM; in test [3] (read-out: TRPML3 activation EC50 (Table 2, number)), 1580 nM; in [8] (read-out: TRPML1 activation EC50 (Table 2, number)), 3520 nM. Moreover, the “cyst area normalized” value in test [6] was determined as 72.3%+/−2.5. Also, the “TRPML1 activation EC50 (Table 2, class)” value in test [8] (Table 2 key) is “B/C/D”. The “concentration needed to effectively activate TRPMLs” value in test [9] was approximately 10 µM.

Regarding `Cc1ccc(S(=O)(=O)Nc2ccccc2N2CCCCC2)s1` [Compound 127, reference compound], the “cyst area normalized” value in test [6] came to 79.6%+/−3.8. Also, in test [7], the EC50 came to 2640 nM.
